{"source": "patent US20120232107A1", "about": "“NON-PEPTIDE ANTAGONISTS OF GASTRIN RELEASING PEPTIDE” (The Government of the United States of America as …, priority 2003, published 2012)", "key": {"[1]": {"system": "Bovine retinal microvascular endothelial cells", "assay": "Cord formation assay in Matrigel", "type": "cell-based", "method": "Formation of tube-like structures was performed as described in Kubota et al. (1988) J. Cell Biol. 107, 1589-1598; Nam et al. (2003) Phytother. Res. 17, 107-111; and Macpherson et al. (2003) Mol Cancer Ther 2, 845-54. Briefly, a thin layer of Matrigel (Collaborative Biomedical Products, Bedford, Mass.) was allowed to polymerize at the bottom of 24-well plates. […] After an overnight incubation at 37° C., the tubular structures were photographed (3 pictures per well at 10×) and the number of knots per photographic field were counted as a measure of lattice complexity."}, "H1299 xenograft": {"system": "H1299 xenograft", "assay": "In vivo tumor growth (xenograft experiment)", "set-up": "species or system mice", "method": "Thirty female athymic nude mice from the NIH colony in Frederick (MD) were injected subcutaneously with 1.0×10^7 H1299 cells/mouse. Two weeks later, all the mice had developed palpable tumors under the skin and at this time they were randomly divided in three groups. Three times a week, each individual tumor was measured (length, height, thickness) and every mouse received an intratumoral injection, according to their group. Group 1 (control) received 100 μl PBS (negative control); group 2 received 100 μl 0.5 μM compound XV′ (77427) in PBS; and group 3 received 100 μl 5 μM compound XV′ (77427) in PBS. When the tumor burden became unbearable (larger than 2000 mm^3), the mice were sacrificed."}, "GRP": {"target": "T1, GRP (Homo sapiens, UniProt P07492)", "T1 construct": "GRP is a 27 amino acid peptide; purchased Peninsula (S. Carlos, Calif.); host or cells: synthetic peptide", "T1 sequence (P07492 24-50 limits assumed)": "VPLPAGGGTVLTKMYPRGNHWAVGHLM", "assay": "IP3 analysis for GRP in H-1299 cells", "type": "cell-based", "settings": "peptide GRP; IP3 or Ca2+ levels induced by GRP in H1299 cells", "method": "This cell line was obtained from ATCC and cultured as the other cell lines. The signal transduction pathway for GRP includes elevation of intracellular levels of IP3 and Ca^2+ and these were investigated as previously shown (Ryan et al. (1998) J. Biol. Chem., 273, 13613-13624). Briefly, to quantify IP3, contents cells were subcultured into 24-well plates (5×10^4 cells/well). After a 24 h incubation period at 37° C., the cells were incubated with 3 μCi/ml myo-[^3H]inositol in growth medium supplemented with 2% FBS for an additional 24 h. Incubation volumes were 500 μl of assay buffer/well containing 135 mM sodium chloride, 20 mM HEPES (pH 7.4), 2 mM calcium chloride, 1.2 mM magnesium sulfate, 1 mM EGTA, 20 mM lithium chloride, 11.1 mM glucose, and 0.05% BSA (v/v) with or without any of the molecules studied at 37° C. for 30 min. Experiments were terminated with 1 ml of ice-cold hydrochloric acid/methanol (0.1%, v/v). [^3H]IP3 was eluted off Dowex AG-1-X8 anion exchange columns with 2 ml of 1 mM ammonium formate and 100 mM formic acid. Each of the eluates was collected and mixed with 10 ml of scintillation mixture (BioSafe, Research Products International Corp, Mount Prospect, Ill.), and the radioactivity was measured in a LS 3801 β counter (Beckman, Somerset, N.J.)."}, "GRP-induced angiogenesis": {"system": "GRP-induced angiogenesis", "assay": "Directed in vivo angiogenesis assay (DIVAA)", "set-up": "species or system mice", "settings": "1 nM GRP in angioreactors, nude mice, 11 days", "method": "Analysis and quantitation of angiogenesis was done using DIVAA as previously described (Martinez et al. (2002) J Natl Cancer Inst 94, 1226-37). Briefly, 10 mm long surgical-grade silicone tubes with only one end open (angioreactors) were filled with 20 μl of matrigel alone or mixed with GRP and the small molecules at the indicated concentrations. After the matrigel solidified, the angioreactors were implanted into the dorsal flanks of athymic nude mice (NCI colony). After 11 days, the mice were injected iv with 25 mg/ml FITC-dextran (100 μl/mouse, Sigma) 20 min before removing angioreactors. Quantitation of neovascularization in the angioreactors was determined as the amount of fluorescence trapped in the implants and was measured in a HP Spectrophotometer (Perkin Elmer)."}, "cell line A345": {"system": "cell line A345", "assay": "Clonogenic assay in soft agar", "type": "cell-based", "settings": "A345, 3 weeks", "method": "B. Cells from the cell line […] were grown in substrate-independent conditions (clonogenic assay) as previously published (Iwai et al., supra)."}, "[2]": {"system": "lung cancer cell line H1299", "assay": "Proliferation assay (growth inhibition MTT)", "type": "cell-based", "settings": "H1299, serum-free medium, 5 days", "method": "A. Tumor cells (from a lung cancer cell line, H1299) were seeded in 96-well plates at a density of 2.0×10^5 cells per well in serum-free medium containing different concentrations of the test agent, the small molecule inhibitor compound XV′ (77427). After 5 days in culture, the number of viable cells per well was estimated by the growth inhibition MTT assay (as reported in Iwai et al. (1999) Lung Cancer 23, 209-22)."}}, "note": "Entries after “also recorded” stand apart in the source; their conditions may differ."}
{"compound": "Nc1nc(Cl)cc(NCCO)n1", "note": "[compound 77427]", "values": [{"measurement": "number of knots per photographic field", "setting": "[1]; 5 nM GRP and 0.5 μM compound added together", "result": "12±4"}, {"measurement": "complexity of the tubular lattice", "setting": "[1]; 5 nM GRP plus 0.5 μM compound", "result": "marked decrease; also recorded: reduces network complexity; also recorded: greatly reduced"}, {"measurement": "Biological activity (cord formation)", "setting": "[1]; GRP-induced cord formation", "result": "Inhibits cord"}, {"measurement": "tumor size", "setting": "H1299 xenograft; after a single intratumoral injection", "result": "significantly reduced"}, {"measurement": "tumor size", "setting": "H1299 xenograft; after the second intratumoral injection", "result": "all but disappeared"}, {"measurement": "Action on second messengers", "setting": "GRP", "result": "Antagonists"}, {"measurement": "inhibition of GRP-induced angiogenesis", "setting": "GRP-induced angiogenesis", "result": "dose-dependent inhibition"}, {"measurement": "inhibition of GRP-induced angiogenesis", "setting": "GRP-induced angiogenesis; listed as XV′", "result": "inhibited"}, {"measurement": "number of colonies in soft agar", "setting": "cell line A345", "result": "reduces the number of colonies"}, {"measurement": "growth inhibitory action on lung cancer cells (MTT)", "setting": "[2]", "result": "modest dose-dependent growth inhibitory action"}]}
